“Also recorded” adds a separate entry of the source.
What was measured:
[1] = test system: IMR32 (reduced PSMD5) and Kelly neuroblastoma cells; experiment: Viability of IMR32 versus Kelly neuroblastoma cells (CellTiter-Glo); format: cell-based, human; details: for sensitivity of IMR32 cells relative to Kelly cells (fold viability): 72 hours after addition, CellTiter-Glo
Procedure: To determine whether these compounds also differentially affect cells with reduced expression of PSDMS, IMR32 and Kelly cells were each cultured in the presence of ABT-263, disulfiram, or elesclomol across a range of concentrations. Cell viability was measured by CellTiter-Glo® Luminescent Cell Viability Assay 72 hours after addition of the compound to cells. The fold viability relative to culture in the absence of the compound was determined for each cell line. […] In the experiment shown in FIG. 24, the lowest lower concentration of ABT-263 and disulfiram tested was 1 uM.
ABT-263 targets several members of the BCL2 family, including BCL2 and BCL-XL.

[2] = test system: T47D cells with doxycycline inducible PSMD2 KD (Lo19S) versus control cells; experiment: Lo19S T47D drug screen (PSMD2 KD versus control cells, CellTiter-Glo); format: cell-based, human; details: T47D, Lo19S state by dox-inducible PSMD2 shRNA; compound library screen; 72 h; CellTiter-Glo
Procedure: The effect of each drug on viability of cells was calculated by averaging the duplicate experiments. The data is plotted in FIG. 16 as the log2 of the ratio of viability of PSMD2 KD versus control cells (log2 (shPSMD2/Control)). […] The Selleck natural product library (NPC) comprising 502 compounds in 5 doses and the. NIH bioactive compound library that includes 731 compounds in 4 doses were also screened using the same system.
A deeper understanding of the proteasome inhibitor resistant state could yield insights into the molecular mechanisms activated by cells to cope with proteotoxic stress and elucidate new therapeutic strategies for cancer. With these goals in mind, we screened mechanistically diverse small molecule libraries to identify compound sensitivities altered by the Lo19S and Hi-OXPHOS states. An initial screen was conducted in the isogenic T47D model with transient induction of the Lo19S state as described above, We evaluated >4300 mechanistically well-defined compounds within 4 libraries. The compounds included approved cancer drugs (Selleck anti-cancer library: CDL), common natural products (Natural product library: NPC) and an ^-NIH bioactives library (NIH). Each of these compounds was tested at ≥4 concentrations. (Table S5, data not shown), An additional 2866 compounds from the Boston University's Chemical Methodology and Library Development (CMLD-BU) small molecule collection was screened at a single dose (BULL, see Table S5).
Generation of the Lo19S T47D cell line—For the generation of the T47D Tet-inducible PSMD2 knockdown cell line—the TRIPZ vector with an inducible shRNA targeting PSMD2 was purchased from Dharmacon (clone V3THS_403760). It was introduced to the T47D cells according to manufactures protocol and cells were selected with puromycin […] for one week. The cells were exposed to doxycycline for 24 hours and cells were FACS sorted for the top 10% of most RFP expressing cells (highest expression of shRNA). The cells were further cultured in the absence of doxycycline and PSMD2 knockdown was induced as specified in the text.
After 48 hours the cells were collected counted and plated (in the absence of dox) at 1000 cells/well in 384-well opaque, white assay plates (Coming, NY), 50 uL per well, and incubated overnight at 37° C./5% CO2. Compound stocks from the Cancer drug library containing 349 bioactive compounds that were arrayed in dose 10 nM, 100 nM, 1 uM, 10 uM (Selleck anti-cancer compound library L3000), the natural products library containing 502 compounds that were utilized in 5 doses (dilution of 1:1000 of 2ug/ml, 0.2 ug/ml, 0.002/ug/ml, 0.0002 ug/ml), the NIH bioactive library including 731 drugs in dose of 10 nM, 100 nM, 1 uM, 10 uM and the Boston University's CMLD (Chemical Methodology and Library Development) compound deck containing 2866 compounds in one dose (10 uM), including novel chemotypes that uniquely probe three-dimensional space by employing stereochemical and positional variation within the molecular framework as diversity elements in library design. 50 nl of compounds were pin-transferred (V&P Scientific, CA, pin tool mounted onto Tecan Freedom Evo 150 MCA96 head, Tecan, Calif.) into duplicate assay plates and incubated for 72 h. The DMSO content was 0.1% within each well, Per plate, there are 32 wells of DMSO vehicle control and 32 wells of positive control compounds. After three days of incubation, 10 uL of CellTiter-Glo (Promega, Wis.) was added to each well, incubated for 10 minutes and the luminescence output was read on the M1000 Infinite Pro plate reader (Tecan, Calif.).

MM.1.S xenograft = experiment: Disseminated (orthotopic) multiple myeloma MM.1.S xenograft model and survival study; format: in vivo, mouse; details: for effect on tumor burden / tumor progression (BLI) / median OS: SCID mice, MM.1.S; for effect on tumor burden / tumor progression (BLI): bioluminescence imaging; for median OS: control median OS 36
Procedure: To test this hypothesis, we established an orthotopic luciferized MM.1.S xenograft model by intravenous injection of MM.1.S cells into severe combined immunodeficient (SCID) mice. After engraftment, the mice were randomized into treatment groups, each carrying equivalent tumor burdens based on bioluminescence imaging (BLI). Mice were then treated with either vehicle alone, bortezomib, elesclomol or with the two drugs in combination.
GFP^+/Luc^+MM.1S cells were generated by retroviral transduction of the human MM1.S that was purchased from ATCC (Manassas, Va., USA)., using the pGC-GFP/Luc vector. Cells were authenticated by short tandem repeat DNA profiling.
Disseminated Multiple Myeloma Animal model and survival study—A total of 25 Female SCID-beige mice at 4-6 weeks of age (Taconic, USA) were utilized for the study. Tumors cells (3 million […] MM1S cells/mouse) were introduced into mice via intravenous injection and were allowed to grow until the LUC signal from their tumors reached 1×10^7 radians (photons/sec/cm^2/surface area). Tumor growth was monitored weekly by bioluminescence imaging (BLI), using an IVIS Spectrum-bioluminescent and fluorescent imaging system (Perkins Elmer). Mice were randomly attributed a group of treatment (n=5 per group). Control group was IV injected once a week 200 uL saline solution; Bortezomib (0.25 mg/kg, 100 uL) was IP injected first day of the week, once a week until death of the animal. Elesclomol (25 mg/kg, 100 uL) was subcutaneously injected every 3rd day of the week until death of the animal. Elesclomol+Bortezomib group were treated similarly to previous groups. The delayed group started the elesclomol treatment 14 days after the inclusion of the animal in the study. Endpoint of the study was dictated by either limb-paralysis of the animal or severe toxicity induced by the treatment as per Dana-Farber Animal policy.

Row | Compound | sensitivity of IMR32 cells relative to Kelly cells (fold viability) [1] | preferential sensitivity of IMR32 versus Kelly cells, compared among BCL2 family inhibitors ([1]; ABT-263 versus more specific BCL2, BCL-XL and MCL-1 inhibitors) | effect of reintroduction (forced expression) of the PSMD5 subunit in IMR32 cells on sensitivity ([1]; IMR32 cells, PSMD5 epigenetically suppressed) | viability of PSMD2 KD versus control cells (log2 (shPSMD2/Control)) [2] | effect on tumor burden / tumor progression (BLI) (MM.1.S xenograft) | median OS (MM.1.S xenograft) | effect on survival (MM.1.S xenograft; versus control)
1 | CC1(C)CCC(c2ccc(Cl)cc2)=C(CN2CCN(c3ccc(C(=O)NS(=O)(=O)c4ccc(N[C@H](CCN5CCOCC5)CSc5ccccc5)c(S(=O)(=O)C(F)(F)F)c4)cc3)CC2)C1 [ABT-263, navitoclax] | dramatically more sensitive; also recorded: significantly more sensitive | much greater for ABT-263 | did not significantly alter | selectively reduce the viability of PSMD2 KD cells versus control cells; also recorded: selectively sensitized cells | – | – | –
2 | CC(C)C[C@H](NC(=O)[C@H](Cc1ccccc1)NC(=O)c1cnccn1)B(O)O [bortezomib] | increased resistance | – | – | selectively reduce viability of control cells versus PSMD2 KD cells | modest effects on tumor burden | 40 | –
3 | CN(NC(=O)CC(=O)NN(C)C(=S)c1ccccc1)C(=S)c1ccccc1 [elesclomol] | dramatically more sensitive | – | – | selectively reduce the viability of PSMD2 KD cells versus control cells; also recorded: selectively sensitized cells; also recorded: highly effective in slowing the growth of cells in the Lo19S state | modest effects on tumor burden | 39 | modestly but significantly increased survival
